Assay results: ChEMBL document CHEMBL6127101, “Wee1 inhibitor optimization through deep-learning-driven decision making” (Eur J Med Chem, 2024)
pIC50: −log10 of the molar value.

What was measured:
Wee1-like protein kinase = Wee1-like protein kinase (Homo sapiens, UniProt P30291); experiment: Inhibition of Wee-1 (unknown origin) using Poly-Lys Tyr as substrate incubated for 60 mins in presence of ATP by ADP-Glo Kinase assay
C-33-A [1] = experiment: Inhibition of cell viability of human C-33-A cells incubated for 72 hrs by Cell Titer-Glo assay; assay type: functional, cell-based
A-427 = experiment: Inhibition of cell viability of human A-427 cells incubated for 72 hrs by Cell Titer-Glo assay; assay type: functional, cell-based; conditions: A-427, 72 h
OVCAR-3 = experiment: Inhibition of cell viability of human OVCAR-3 cells incubated for 72 hrs by Cell Titer-Glo assay; assay type: functional, cell-based; conditions: OVCAR-3, 72 h
WiDr = experiment: Inhibition of cell viability of human WiDr cells incubated for 72 hrs by Cell Titer-Glo assay; assay type: functional, cell-based
NCI-H446 = experiment: Inhibition of cell viability of human NCI-H446 cells incubated for 72 hrs by Cell Titer-Glo assay; conditions: NCI-H446, 72 h
C-33-A [2] = experiment: Inhibition of cell viability of human C-33-A cells incubated for 72 hrs by Cell Titer-Glo assay relative to control; assay type: functional

Chain of Wee1-like protein kinase (P30291 whole entry): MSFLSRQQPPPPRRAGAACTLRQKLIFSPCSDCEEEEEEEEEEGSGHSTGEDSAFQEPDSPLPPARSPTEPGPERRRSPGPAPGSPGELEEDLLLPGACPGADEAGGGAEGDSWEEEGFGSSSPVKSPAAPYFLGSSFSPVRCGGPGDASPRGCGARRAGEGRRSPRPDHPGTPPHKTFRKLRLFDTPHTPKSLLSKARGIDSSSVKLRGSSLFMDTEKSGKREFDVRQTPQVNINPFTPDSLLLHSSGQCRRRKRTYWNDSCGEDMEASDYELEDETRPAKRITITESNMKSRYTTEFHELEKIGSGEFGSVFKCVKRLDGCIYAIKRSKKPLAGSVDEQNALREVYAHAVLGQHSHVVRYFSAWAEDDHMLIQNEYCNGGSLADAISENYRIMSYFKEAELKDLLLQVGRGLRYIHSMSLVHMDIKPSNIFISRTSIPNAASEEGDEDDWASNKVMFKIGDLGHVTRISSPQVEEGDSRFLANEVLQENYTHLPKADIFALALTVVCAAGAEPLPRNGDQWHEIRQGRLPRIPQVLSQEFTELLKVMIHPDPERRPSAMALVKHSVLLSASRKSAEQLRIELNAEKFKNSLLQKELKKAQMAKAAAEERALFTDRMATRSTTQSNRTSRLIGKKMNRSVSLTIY

Compound	pIC50 (Wee1-like protein kinase)	pIC50 (C-33-A [1])	pIC50 (A-427)	pIC50 (OVCAR-3)	pIC50 (WiDr)	pIC50 (NCI-H446)	inhibition (INH) (C-33-A [2])
Cc1cc(-c2ccnc(-c3nc(Nc4ccc(N5CCC(C)(N)CC5)cc4)ncc3-c3cnco3)c2)n[nH]1	6.05	–	–	–	–	–	–
CN1CCN(c2ccc(Nc3ncc(-c4cncs4)c(-c4cnc(N5CC[C@H](O)C5)s4)n3)cc2)CC1	8.38	6.78	6.44	6.37	5.96	6.27	–
COc1cc(Nc2ncc(-c3cncs3)c(-c3cnc(N4CC(O)C4)s3)n2)ccc1N1CCN(C)CC1	8.43	6.98	6.79	6.60	6.38	6.50	–
COc1cc(Nc2ncc(-c3cnco3)c(-c3cnc(N4CC[C@H](F)C4)s3)n2)ccc1N1CCN(C)CC1	8.60	7.20	6.94	6.67	6.73	6.52	–
CC1(N)CCN(c2ccc(Nc3ncc(-c4cnco4)c(-c4cc(N5CC[C@H](N)C5)ns4)n3)cc2)CC1	7.33	–	–	–	–	< 5.00	–
CN1CCN(c2ccc(Nc3ncc(-c4cncs4)c(-c4cnc(N5CC[C@H](F)C5)s4)n3)cc2)CC1	8.74	–	7.01	6.79	6.69	6.82	43.6%
CN1CCN(c2ccc(Nc3ncc(-c4cncs4)c(-c4cc5ccccc5o4)n3)cc2)CC1	8.64	6.34	6.33	6.13	6.07	5.94	–
CC1(N)CCN(c2ccc(Nc3ncc(-c4cnco4)c(-c4cc5ccc(CO)cc5o4)n3)cc2)CC1	7.87	–	–	–	–	–	–
CC1(N)CCN(c2ccc(Nc3ncc(-c4cnco4)c(-c4cccc(C(C)(C)O)c4)n3)cc2)CC1	6.80	–	–	–	–	–	–
COc1cc(Nc2ncc(-c3cncs3)c(-c3cnc(N4CC[C@H](F)C4)s3)n2)ccc1N1CCN(C)CC1	8.70	7.64	7.46	7.06	7.07	7.03	–
COc1cc(Nc2ncc(-c3cncs3)c(-c3cc4ccccc4o3)n2)ccc1N1CCN(C)CC1	8.72	–	–	–	–	5.69	–
CC1(N)CCN(c2ccc(Nc3ncc(-c4cnco4)c(-c4cnc(N5CC(O)C5)s4)n3)cc2)CC1	7.47	–	–	–	–	–	–
COc1cc(Nc2ncc(-c3cncs3)c(-c3cnc(N4CC[C@H](O)C4)s3)n2)ccc1N1CCN(C)CC1	8.70	7.00	6.82	6.64	6.27	6.38	–
CN1CCN(c2ccc(Nc3ncc(-c4cnco4)c(-c4cnc(N5CC[C@H](O)C5)s4)n3)cc2)CC1	7.68	6.28	6.25	5.68	5.66	5.78	–
C=CCn1c(=O)c2cnc(Nc3ccc(N4CCN(C)CC4)cc3)nc2n1-c1ccc2c(n1)[C@@](O)(CC)CC2 [AZENOSERTIB]	8.89	6.42	6.43	6.61	6.59	6.60	–
CC1(N)CCN(c2ccc(Nc3ncc(-c4cnco4)c(-c4snc(N5CCC(N)C5)c4F)n3)cc2)CC1 (stereo not given)	7.33	–	–	–	–	–	–
CN1CCN(c2ccc(Nc3ncc(-c4cnco4)c(-c4cnc(N5CC[C@H](F)C5)s4)n3)cc2)CC1	8.44	6.89	6.68	6.38	6.37	6.25	–
COc1cc(Nc2ncc(-c3cnco3)c(-c3cnc(N4CC[C@H](O)C4)s3)n2)ccc1N1CCN(C)CC1	7.65	6.39	6.23	5.74	5.83	5.85	–
CN1CCN(c2ccc(Nc3ncc(-c4cncs4)c(-c4cnc(N5CC(O)C5)s4)n3)cc2)CC1	8.44	6.56	6.43	6.45	5.99	6.21	–
CC1(N)CCN(c2ccc(Nc3ncc(-c4cnco4)c(-c4cc5ccccc5o4)n3)cc2)CC1	7.87	–	5.84	5.82	–	6.15	–
